# Patent US7173047B2, “Benzo (f) insoindol derivatives and their use as ep4 receptor ligands” (Glaxo Group Limited, priority 2000, dated 2007)
# Biological target: T1, human EP4 receptor (Homo sapiens, UniProt P35408)
# Assay: Human EP4 Scintillation Proximity Assay ([3H]-prostaglandin E2 radioligand binding)
# Parameters: expressed in transfected cells; host or cells: CHO cells infected with Semliki Forest Virus (SFV-1) particles; membranes
# Conditions: membranes of CHO cells expressing human EP4 receptor; 1.25 nM [3H]-prostaglandin E2; pKi from IC50 by Cheng-Prusoff; read-out: pKi at EP4 receptors (converted)
# Description: Quantification of radioligand binding by scintillation proximity assay (SPA) is a long-established principle. Briefly, the affinity of compounds for a receptor is assesssed by the specific competition between known quantities of radiolabelled ligand and compound for that receptor. Increasing concentrations of compound reduce the amount of radiolabel that binds to the receptor. This gives rise to a diminshing scintillation signal from SPA beads coated with membranes that bear the receptor. The signal may be detected with a suitable scintillation counter and the data generated may be analysed with suitable curve-fitting software.
# The human EP4 SPA assay (hereafter referred to as ‘the assay’) utilises membranes prepared from Chinese Hamster Ovary (CHO cells) infected with Semilki Forest Virus (SFV). Genetically engineered SFV-1 viral particles containing the genetic sequence of the human EP4 receptor were used to infect CHO cells resulting in expression of the receptor protein in cellular membranes. Cells washed free of media are homogenised in a pH-buffered medium containing peptidase inhibitors. A suitable buffer is of the following composition: 50 mM HEPES, 1 mM EDTA, 25 μg/ml bacitracin, 100 μM leupeptin, 1 mM PMSF, 2 μM Pepstatin A, pH adjusted to 7.4 with KOH. Following removal of cell debris by a low-speed centrifugation, a pellet of membranes is prepared by a high-speed (48000 g) centrifugation of the resulting supernatant. Membrane suspensions such as that described may be stored at −80° C. until used.
# For assay, membranes expressing human EP4 receptors are diluted in a pH-buffered medium and mixed with SPA beads coated with a suitable substance to facilitate the adhesion of membranes to the beads. The concentrations of membrane protein and SPA beads chosen should result in SPA binding signal of at least 300 corrected counts per minute (CCPM) when tritiated radioligand at a concentration close to its Kd (affinity value) is combined with the mixture. Non-specific binding (nsb) may be determined by competition between the radiolabelled ligand and a saturating concentration of unlabelled ligand. In order to quantify the affinity of EP4 receptor ligands, compounds are diluted in a stepwise manner across the wells of a 96-well plate. Radioligand, compound, and unlabelled ligand are then added to a 96-well plate suitable for the measurement of SPA binding signals prior to the addition of bead/membrane mixture to initiate the binding reaction. Equilibrium may be achieved by incubation at room temperature for 120 minutes prior to scintillation counting. The data so generated may be analysed by means of a computerised curve-fitting routine in order to quantify the concentration of compound that displaces 50% of the specific radioligand binding (IC50). The affinity (pKi) of the compound may be calculated from the IC50 by application of the Cheng-Prusoff correction. Suitable reagents and protocols are: reaction buffer containing 50 mM HEPES, 10 mM MgCl2, pH adjusted to 7.4 with KOH; SPA beads coated with wheatgerm agglutinin; 1.25 nM [^3H]-prostaglandin E2 as radioligand; 10 μM prostaglandin E2 as unlabelled ligand; a three-fold dilution series of compound starting at 10 μM and ending at 0.3 nM is adequate.
# T1 sequence (P35408 whole entry): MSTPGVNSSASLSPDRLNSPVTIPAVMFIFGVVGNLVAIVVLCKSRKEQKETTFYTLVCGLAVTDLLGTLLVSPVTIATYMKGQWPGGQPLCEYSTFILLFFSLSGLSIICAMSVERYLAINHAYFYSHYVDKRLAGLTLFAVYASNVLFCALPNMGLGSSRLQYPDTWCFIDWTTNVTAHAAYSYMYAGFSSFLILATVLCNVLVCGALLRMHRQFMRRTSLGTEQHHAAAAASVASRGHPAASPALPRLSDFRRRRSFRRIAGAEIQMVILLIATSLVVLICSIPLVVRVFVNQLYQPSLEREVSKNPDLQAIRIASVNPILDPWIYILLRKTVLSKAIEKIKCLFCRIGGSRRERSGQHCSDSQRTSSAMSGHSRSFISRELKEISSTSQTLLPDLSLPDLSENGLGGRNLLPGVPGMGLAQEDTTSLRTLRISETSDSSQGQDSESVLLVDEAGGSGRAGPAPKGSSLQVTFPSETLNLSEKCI
row,Compound,Ki [nM]
1,CCOc1c2c(c(OCC)c3ccccc13)C(=O)N(c1ccc(CC(=O)NS(=O)(=O)c3cc(Br)ccc3OC)cc1)C2 [Example 12],≤ 100
2,CCOc1c2c(c(OCC)c3ccccc13)C(=O)N(c1ccc(CC(=O)NS(=O)(=O)c3cccnc3)cc1)C2 [Example 30],≤ 100
3,CCOc1c2c(c(OCC)c3ccccc13)C(=O)N(c1ccc(CC(=O)NS(=O)(=O)c3cccc(Br)c3)cc1)C2 [Example 10],≤ 100
4,"CCOc1c2c(c(OCC)c3ccccc13)C(=O)N(c1ccc(CC(=O)NS(=O)(=O)c3ccc(F)cc3)cc1)C2 [Example 1, N-{[4-(4,9-diethoxy-1-oxo-1,3-dihydro-2H-benzo[f]isoindol-2-yl)phenyl]acetyl}-4-fluorobenzenesulfonamide]",≤ 100
5,CCOc1c2c(c(OCC)c3ccccc13)C(=O)N(c1ccc(CC(=O)NS(=O)(=O)c3cccs3)cc1)C2 [Example 35],≤ 100
6,CCOC(=O)CS(=O)(=O)NC(=O)Cc1ccc(N2Cc3c(c(OCC)c4ccccc4c3OCC)C2=O)cc1 [Example 34],≤ 100
7,CCOc1c2c(c(OCC)c3ccccc13)C(=O)N(c1ccc(CC(=O)NS(=O)(=O)c3cccc(OC)c3)cc1)C2 [Example 13],≤ 100

# Now from value to molecule:
row,Ki [nM],Compound
1,≤ 100,CCOc1c2c(c(OCC)c3ccccc13)C(=O)N(c1ccc(CC(=O)NS(=O)(=O)c3cccc(Cl)c3)cc1)C2=O [Example 16]
2,≤ 100,CCOc1c2c(c(OCC)c3ccccc13)C(=O)N(c1ccc(CC(=O)NS(=O)(=O)c3ccccc3C)cc1)C2 [Example 4]
3,≤ 100,CCOc1c2c(c(OCC)c3ccccc13)C(=O)N(c1ccc(CC(=O)NS(=O)(=O)c3ccc4ccccc4c3)cc1)C2 [Example 37]
4,≤ 100,CCOc1c2c(c(OCC)c3ccccc13)C(=O)N(c1ccc(CC(=O)NS(=O)(=O)c3ccccc3C)cc1)C2=O [Example 14]
5,≤ 100,CCOc1c2c(c(OCC)c3ccccc13)C(=O)N(c1ccc(CC(=O)NS(=O)(=O)c3ccccc3)cc1)C2=O [Example 15]
6,≤ 100,CCOc1c2c(c(OCC)c3ccccc13)C(=O)N(c1ccc(CC(=O)NS(=O)(=O)c3ccc(C)cc3OC)cc1)C2 [Example 9]
7,≤ 100,"CCOc1c2c(c(OCC)c3ccccc13)C(=O)N(c1ccc(CC(=O)NS(=O)(=O)c3ccccc3)cc1)C2 [Example 3, N-{2-[4-(4,9-diethoxy-1-oxo-1,3-dihydro-2H-benzo[f]isoindol-2-yl)phenyl]acetyl}benzenesulfonamide]"

# Biological target: T1, human EP4 receptor
# Assay: [125I]cAMP Scintillation Proximity Assay (EP4 antagonist assay, HEK-293 cells expressing recombinant human EP4 receptor)
# Assay type: cell-based
# Parameters: expressed in transfected cells
# Conditions: method of Arunlakshana and Schild, read-out: pKb (antagonist affinity) (converted)
# Description: The CAMP assay utilises HEK-293 cells expressing the recombinant human EP4 receptor, obtained from Receptor Biology, Inc. Beltsville, Md., USA. The cells were cultured in Dulbecco's Modified Eagle Medium—HAM F12 mix (DMEM-F12), containing 10% heat inactivated-foetal bovine serum (FBS) and 2 mM L-glutamine. The cells were either passaged into fresh medium or used in an assay once 90% confluency as determined visually had been achieved.
# The cells were harvested by treatment with Versene, re-suspended in fresh culture medium and plated out to yield approximately 10,000 cells per well of a 96-well plate for overnight culture in culture medium additionally supplemented with 3 μM indomethacin. For assay, the culture medium was replaced with assay medium (DMEM-F12 containing 300 μM isobutylmethylxanthine (IBMX) and 3 μM indomethacin) and incubated for 30 minutes. Following this, antagonist was then added at various concentrations such that an entire agonist concentration-effect curve could be obtained in the presence of a single concentration of the antagonist. […] The amount of cAMP in each well was then determined by [^125I]cAMP scintillation proximity assay using a proprietary kit, obtained from Amersham, Buckinghamshire, UK, and according to the manufacturers instructions.
# Data from cAMP assays were expressed as pmol CAMP per well. […]
row,Kb [nM],Compound
1,≤ 100,"CCOc1c2c(c(OCC)c3ccccc13)C(=O)N(c1ccc(CC(=O)NS(=O)(=O)c3ccccc3)cc1)C2 [Example 3, N-{2-[4-(4,9-diethoxy-1-oxo-1,3-dihydro-2H-benzo[f]isoindol-2-yl)phenyl]acetyl}benzenesulfonamide]"
2,≤ 100,"CCOc1c2c(c(OCC)c3ccccc13)C(=O)N(c1ccc(CC(=O)NS(=O)(=O)c3ccc(F)cc3)cc1)C2 [Example 1, N-{[4-(4,9-diethoxy-1-oxo-1,3-dihydro-2H-benzo[f]isoindol-2-yl)phenyl]acetyl}-4-fluorobenzenesulfonamide]"
